From PubChem BioAssay (NCI)
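Interpolation was linear, between the two tested concentrations surrounding the appropriate level; five concentrations were tested over 48 hours in 96-well plates. GI50: concentration for 50% inhibition of growth. TGI: total growth inhibition.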

Tests used:
Test in all cases: NCI-60 cell line screen, 48 h
[1] = tested on: CAKI-1 renal
[2] = tested on: COLO 205 colon
[3] = tested on: HCT-116 colon
[4] = tested on: HL-60(TB) leukemia
[5] = tested on: HOP-62 NSCLC
[6] = tested on: HOP-92 NSCLC
[7] = tested on: HT29 colon
[8] = tested on: MDA-MB-231 breast
[9] = tested on: OVCAR-4 ovarian
[10] = tested on: UACC-257 melanoma

Row | Compound | GI50 [1] [µM] | TGI [1] [µM] | GI50 [2] [µM] | TGI [2] [µM] | GI50 [3] [µM] | TGI [3] [µM] | GI50 [4] [µM] | TGI [4] [µM] | GI50 [5] [µM] | TGI [5] [µM] | GI50 [6] [µM] | TGI [6] [µM] | GI50 [7] [µM] | TGI [7] [µM] | GI50 [8] [µM] | TGI [8] [µM] | GI50 [9] [µM] | TGI [9] [µM] | GI50 [10] [µM] | TGI [10] [µM]
1 | NC(=O)C(Br)CBr (stereo unspecified) | 0.472 | 1.16 | 1.03 | 2.56 | 1.3 | 2.56 | 0.728 | 3.05 | 18.4 | 43.5 | 1.39 | 3.1 | 1.59 | 9.42 | 2.3 | 4.76 | 1.25 | 2.55 | 1.64 | 3.27
2 | CCON=C1C(C)(C)C(C)(C)C(C)(C)C1(C)C |  | > 100 |  | > 100 |  | > 100 |  | > 100 |  | > 100 |  | > 100 |  | > 100 |  | > 100 |  | > 100 |  | > 100
3 | COC(=O)Nc1nc2ccc(Oc3ccc(NC(=O)Nc4cccc(Br)c4)cc3)cc2[nH]1 | 8.74 | > 25 | 1.48 | 7 | 1.32 | > 12.6 | 1.06 | > 10.6 | 1.24 | 8.67 | 3.33 | 12.7 | 0.7 | 3.28 | 5.74 | > 25 | 3.39 | 7.42 | 1.95 | > 16
4 | CCOC(=O)c1cc2c(n1Cc1cc(OC)cc(OC)c1)-c1oncc1CCC2 | 0.101 | > 100 | 0.0647 | 6.15 | 0.0588 | > 100 | 0.0311 | 0.0972 | 0.242 | > 100 | 0.0858 | 7.37 | 0.0499 | 20.1 | 0.439 | > 24.5 | 1.77 | > 100 |  | 
5 | O=S1(=O)N(Cc2ccccc2)[C@@H](Cc2ccccc2)C2O[C@H]2[C@H](Cc2ccccc2)N1Cc1ccccc1 (stereo partly specified) | 0.949 | > 7.5 | > 7.5 | > 7.5 | 0.844 | > 7.5 | 4.75 | > 7.5 | > 7.5 | > 7.5 | > 7.5 | > 7.5 | > 7.5 | > 7.5 | > 7.5 | > 7.5 | > 7.5 | > 7.5 | 2.89 | > 7.5
6 | Cc1[nH]c(C(=O)Nc2ccc(C(=O)N3CCNCC3)cc2OC(C)C)c(Cl)c1Cl | 3.61 | 15.1 |  |  | 1.85 | 3.41 | 2.21 | 4.44 | 1.81 | 4.65 | 1.62 | 6.07 | 1.76 | 3.26 | 1.67 | 3.33 | 3.57 | 11.8 | 1.79 | 3.52
7 | C[N+](C)([O-])CCCNc1c2ccccc2nc2cccc([N+](=O)[O-])c12 |  | 11.6 |  | 0.322 |  | 1.02 |  | 4.22 |  | 3.23 |  | 0.806 |  | 0.606 |  | 1.48 |  | 3.16 |  | 2.25
